In patent US5037739A, “N-acetylmannosamine dehydrogenase, process for its production, method for quantitatively analyzing N-acetylmannosamine or sialic acid, and kit for the quantitative analysis” (Noda Institute for Scientific Research, priority 1986, dated 1991):
Read-outs that look alike come from different tables or passages of the source.

Assays:
[1] = molecular target: T1, N-AMDH (Flavobacterium sp., UniProt P22441); test: Action and substrate-specificity of N-AMDH (substrates and electron acceptors); assay type: biochemical, Flavobacterium sp. No. 141-8; settings: for Action of N-AMDH upon the sugar as substrate: in the presence of NAD
T1 construct: N-AMDH was accumulated in the bacterial cells; endogenous in cells; host or cells: Flavobacterium sp; No. 141-8 (natural producer isolated from soil); enzyme purified from the disrupted bacterial cells
T1 sequence (P22441 2-271 limits assumed): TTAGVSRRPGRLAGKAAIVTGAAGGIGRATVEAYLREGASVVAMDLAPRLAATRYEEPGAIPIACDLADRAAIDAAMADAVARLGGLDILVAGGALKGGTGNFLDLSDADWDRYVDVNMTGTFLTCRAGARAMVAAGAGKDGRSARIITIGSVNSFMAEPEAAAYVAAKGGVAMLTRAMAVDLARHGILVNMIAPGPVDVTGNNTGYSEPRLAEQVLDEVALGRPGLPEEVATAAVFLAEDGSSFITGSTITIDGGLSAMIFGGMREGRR
Description: In the presence of water, N-acetylmannosaminolactone is spontaneously hydrolyzed to form N-acetylmannosaminic acid. Accordingly, the reaction is substantially irreversible.
(§1) To 1.8 ml of 0.05M tris-hydrochloric acid buffer (pH 8.2) is added 0.1 ml of 60 mM NAD solution. After keeping the mixture at 37° C. for 10 minutes, 10 microliters of enzyme solution is added, and then 0.1 ml of 0.3M N-AM is added. By homogenizing the mixture, the reaction is started. The reaction mixture is immediately transferred into a light absorbance measurement cell (light path 1 cm) kept at 37° C., and absorbance is measured over a period of 5 minutes (if necessary, over a longer period of time) at intervals of one minute at a wavelength of 340 nm. A quantity of enzyme capable of forming 1 micromole of NADH in one minute is taken as one unit.

[2] = molecular target: T1, N-AMDH; test: N-AMDH enzymatic activity in solutions containing metallic ions and inhibitors; assay type: biochemical, Flavobacterium sp. No. 141-8; settings: for remaining activity at 2000 µM: read-out: Residual activity (%)
Description: The table presented above illustrates the enzymatic activity of N-AMDH measured in solutions containing various metallic ions and inhibitors at a concentration of 2 mM. There is known no substance making a particular contribution to its activation and stabilization.
as §1

[3] = tested on: Flavobacterium sp. No. 141-8; test: Growth resistance of the producing strain (penicillin, sodium chloride); assay type: cell-based
Source text: (1) Penicillin resistance: Growth even at 100 units/ml.
(2) Sodium chloride resistance: No growth above 2%.

[4] = pH stability and heat stability (inactivation conditions) of N-AMDH; assay type: physicochemical, Flavobacterium sp. No. 141-8
Description: The buffer solutions used there are potassium phosphate buffer, tris-hydrochloric acid buffer and glycine-sodium hydroxide buffer.
At temperatures exceeding 45° C., it rapidly loses its activity. When heat treated at 45° C. for 10 minutes, it is stable at a pH of 8.5-9.5, while it is particularly instable at a pH value of 7 or below.

[5] = Acrylamide gel isoelectric focusing of N-AMDH; assay type: physicochemical, Flavobacterium sp. No. 141-8
Source text: As measured by acrylamide gel isoelectric focusing, its isoelectric point is 4.9.

[6] = N-AMDH activity with metallic ion or inhibitor at 2 mM, None = 100
[7] = heat treated at 45° C. for 10 minutes

O=C1C(Cl)=CC(=Nc2ccc(O)cc2)C=C1Cl [2,6-dichlorophenol indophenol]
Utilization as electron acceptor by N-AMDH [1]: hardly utilizes

Nc1ncnc2c1ncn2[C@@H]1O[C@H](COP(=O)(O)O)[C@@H](O)[C@H]1O [5'-AMP]
remaining activity at 2000 µM [2, 6]: 76%

Oc1cccc2cccnc12 [8-Hydroxyquinoline]
Residual activity (%) [2]: 95%

O=S(=O)([O-])[O-].[Cu+2] [CuSO4]
Residual activity (%) [2, 6]: 79%

O=C(O)CN(CCN(CC(=O)O)CC(=O)O)CC(=O)O [EDTA]
remaining activity at 2000 µM [2]: 89%

[Cl][Hg][Cl] [HgCl2]
Residual activity (%) [2, 6]: 6%

NC(=O)CI [Iodoacetamide]
remaining activity at 2000 µM [2, 6]: 87%

CC(=O)N[C@@H]1C(O)O[C@H](CO)[C@@H](O)[C@@H]1O (stereo partly shown) [N-AM, N-acetylmannosamine]
Action of N-AMDH upon the sugar as substrate [1]: oxidizes N-AM into N-acetylmannoaminolactone

CC(=O)N[C@H]1C(O)O[C@H](CO)[C@H](O)[C@@H]1O (stereo partly shown) [N-acetylgalactosamine]
Action of N-AMDH upon the sugar as substrate [1]: hardly acts or does not act at all

CC(=O)N[C@H]1C(O)O[C@H](CO)[C@@H](O)[C@@H]1O (stereo partly shown) [N-acetylglucosamine]
Action of N-AMDH upon the sugar as substrate [1]: hardly acts or does not act at all

O=C(CO)N[C@@H]1C(O)O[C@H](CO)[C@@H](O)[C@@H]1O (stereo partly shown) [N-glycolylmannosamine]
Action of N-AMDH upon the sugar as substrate [1]: acts upon N-glycolylmannosamine in the same manner as above

NC(=O)c1ccc[n+]([C@@H]2O[C@H](COP(=O)([O-])OP(=O)(O)OC[C@H]3O[C@@H](n4cnc5c(N)ncnc54)[C@H](OP(=O)(O)O)[C@@H]3O)[C@@H](O)[C@H]2O)c1 [NADP, nicotinamide adenine dinucleotide phosphate]
Utilization as electron acceptor by N-AMDH [1]: hardly utilizes

[N-]=[N+]=[N-].[Na+] [NaN3]
Residual activity (%) [2, 6]: 83%

O=S(=O)([O-])[O-].[Ni+2] [NiSO4]
Residual activity (%) [2, 6]: 69%

O=C(O)c1cc[c]([Hg][Cl])cc1 [PCMB]
Residual activity (%) [2, 6]: 95%

CC1(C)S[C@@H]2[C@H](NC(=O)Cc3ccccc3)C(=O)N2[C@H]1C(=O)O [Penicillin]
Penicillin resistance: concentration at which the strain still grows [3]: ≥ 100 units/ml

CCCCCCCCCCCCOS(=O)(=O)O [SDS]
remaining activity at 2000 µM [2, 6]: 18%

[Cl-].[Na+] [Sodium chloride]
Sodium chloride resistance: concentration above which there is no growth [3]: above 2%

O=S(=O)([O-])[O-].[Zn+2] [ZnSO4]
Residual activity (%) [2, 6]: 71%

c1cnc2c(c1)ccc1cccnc12 [o-Phenanthroline]
remaining activity at 2000 µM [2, 6]: 87%

c1ccc(-c2ccccn2)nc1 [α,α'-Dipyridyl]
remaining activity at 2000 µM [2, 6]: 97%

N-acetylmannosamine dehydrogenase [N-AMDH]
Temperature up to which activity is kept stable on heat treatment ([4]; FIG. 4, heat treated for minutes): ≤ 45 °C
pH at which it is particularly instable when heat treated [4, 7]: ≤ 7
pH at which it is stable when heat treated [4, 7]: 8.5-9.5
Isoelectric point [5]: 4.9
